What was measured:
HT22 cells = test: t-BuOOH toxicity protection (MTS cell viability); assay type: cell-based, mouse; conditions: HT22, 50 μM t-BuOOH
Protocol: Cell viability was assessed by the ability of the viable cells to metabolize 3-(4,5-dimethylthiazol-2-yl)-5-(3-carboxymethoxyphenyl)-2(4-sulfophenyl)2-H-tetrazolium, inner salt (MTS), as described previously (Cory et al., 1991). The metabolism of tetrazolium salts is often used to measure cellular proliferation, but in the system used here, it has been previously shown to correlate well with cell viability as determined by trypan blue exclusion and colony-forming assays (Davis and Maher, 1994). Briefly, HT-22 cells were seeded onto 96-well plates at 5.0×10^3 cells per well in 75 μL of medium and maintained at 37° C. in 5% CO2 overnight prior to the initiation of experimental treatments. For glutamate toxicity testing, cells were subsequently treated with 25 μL of medium containing glutamate (monosodium glutamate, Sigma, 1 M stock concentration in media, to achieve a final concentration of 10 mM) plus inhibitors (stock in DMSO) and maintained at 37° C. in 5% CO2. For t-BuOOH toxicity testing, cells were subsequently treated with 25 μL of medium containing t-BuOOH (Sigma, 10 mM stock concentration, to achieve a final concentration of 50 μM) plus inhibitors (stock in DMSO) and maintained at 37° C. in 5% CO2 for 3 hours, after which the media was removed, cells washed gently with HBSS, the media replaced with standard culture media, and the cells returned to incubation at 37° C. in 5% CO2. For both glutamate and t-BuOOH treatments, 10 μl of MTS solution was added to each well 24 hrs after initial treatment, and the cells were maintained in growth medium for 2 h at 37° C. Absorbance at 490 nm was subsequently measured by a SpectraMax 190 plate reader (Molecular Devices). The growth medium without cells in the presence of MTS solution was used as solution background and untreated cells were considered the controls. Cell viability was calculated as a percentage compared with untreated controls. EC50 determinations were based on 12-point titrations using GraphPad Prism, and each experiment was repeated at least four times. Morphology of HT22 cells following treatments was determined by phase-contrast microscopy. Digital images of cells grown on cell culture plates were captured at 10× magnification.
In light of the findings that the protection against glutamate induced cell death provided by VK2, 2q, and 2j, are at least partially mediated by the attenuation of the increased production of endogenous ROS, the inventors also examined the effects of these compounds on tert-butylhydroperoxide (t-BuOOH) induced cell death. t-BuOOH is a short chain analog of the lipid hydroperoxides formed from peroxidation reactions during oxidative stress that is cytotoxic to cells (Lemasters and Nieminen, 1997). […] It is well documented that cells undergo rapid and extensive fragmentation in the early stages of cell death (Bossy-Wetzel et al., 2003; Frank et al., 2001; Breckenridge et al., 2008; Jagasia et al., 2005; Lee et al., 2004). Recent studies have shown that mitochondrial fragmentation is regulated by the translocation of dynamin-related protein 1 (Drp1) from the cytosol to the mitochondria, where it assembles to form spirals at division sites (Smirnova et al., 2001). Although the exact molecular mechanism is still not well studied, the activity of Drp1 is regulated by the phosphorylation and dephosphorylation of specific serine residues by protein kinases and phosphatases such as calcineurin and the PGAM5 (Wang et al., 2012; Chang et al., 2007). […]

HO-1 = test: qRT-PCR of antioxidant response gene HO-1; assay type: cell-based, mouse; conditions: HT22, 10 mM glutamate 16 hrs, relative to glutamate only
Protocol: HT22 cells were seeded onto cell culture treated 6-well plates at 3.0×10^5 cells per well in 2 mL of medium and maintained at 37° C. in 5% CO2 overnight prior to the initiation of experimental treatments. Cells were subsequently treated with 1 mL of medium containing glutamate (monosodium glutamate, Sigma-Aldritch, 1 M stock concentration in media, to achieve a final concentration of 10 mM) plus inhibitors (stock in DMSO) and maintained at 37° C. in 5% CO2. After 16 hrs, the media was collected and the cells harvested by trypsanization. After centrifugation, pelleted cells were washed with cold Hanks' Balanced Salt Solution (HBSS Ca^2+/Mg^2+ Free; Invitrogen; KCl 5.33 mM, KH2PO4 0.441 mM, NaHCO3 4.17 mM, NaCl 137.93 mM, Na2HPO4 0.338 mM, D-Glucose 5.56 mM), qRT-PCR was used to detect HO-1, NQO-1, and PGAM5 mRNAs in the HT22 cells. […] Therefore β2-microglobulin was used as a reference gene (Barrionuevo and Burggren, 1999). HT22 cells were cultured as described for 16 hrs. Total RNAs were extracted using the RNEasy kit (Qiagen), and transcripts of interest were amplified by PCR using the 1-step Syber Green qRT-PCR kit (Quanta) and the following specific primers (Harvard PrimerBank; Integrated DNA Technologies): HO-1, 5′-[…]-3′ (SEQ ID NO:1) and 5′-[…]-3′ (SEQ ID NO:2); PGAM5, 5′-[…]-3′ (SEQ ID NO:3) and 5′-[…]-3′ (SEQ ID NO:4); NQO-1, 5′-[…]-3′ (SEQ ID NO:5) and 5′-[…]-3′ (SEQ ID NO:6); and β2-microglobulin, 5′-[…]-3′ (SEQ ID NO:7) and 5′-[…]-3′ (SEQ ID NO:8). Linearity of the primers was verified before use, and fold changes were calculated as previously described using the Livak method (Barrionuevo and Burggren, 1999).

Compound | protection from t-BuOOH induced cell death (HT22 cells) | HO-1 gene expression (HO-1)
O=C1C=C(NCc2ccccc2)C(=O)c2ccccc21 [Compound 2j, 2-(benzylamino)naphthalene-1,4-dione] | capable of protecting HT22 cells from t-BuOOH | significantly decreased HO-1 expression
O=C1C=C(NCc2cccc(Cl)c2)C(=O)c2ccccc21 [Compound 2q, 2-((3-chlorobenzyl)amino)naphthalene-1,4-dione] | capable of protecting HT22 cells from t-BuOOH | significantly decreased HO-1 expression
menaquinones [VK2, reference compound] | capable of protecting HT22 cells from t-BuOOH | significantly decreased HO-1 expression

— patent US10391070B2, “Compositions and methods for treating neurological diseases or injury” (MUSC FOUNDATION FOR RESEARCH DEVELOPMENT, priority 2012, dated 2019)
